From PubChem BioAssay (NCI)
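1) Cells in 96-well plates. 2) Compound, 48 h, 5 concentrations. 3) Linear interpolation between surrounding doses. 4) Unreached endpoint = highest concentration. TGI marks complete inhibition of growth.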

Experiments:
Test in all cases: NCI tumour cell line growth inhibition, 48 h
MDA-MB-435 = test system: MDA-MB-435
M14 melanoma = test system: M14 melanoma
RPMI-8226 leukemia = test system: RPMI-8226 leukemia
HS 578T breast = test system: HS 578T breast
HCT-15 colon = test system: HCT-15 colon
HT29 colon = test system: HT29 colon
HOP-62 NSCLC = test system: HOP-62 NSCLC
UACC-257 melanoma = test system: UACC-257 melanoma
A498 renal = test system: A498 renal
MDA-N = test system: MDA-N
NCI/ADR-RES ovarian = test system: NCI/ADR-RES ovarian
SK-MEL-5 melanoma = test system: SK-MEL-5 melanoma

SMILES	TGI (MDA-MB-435) [µM]	TGI (M14 melanoma) [µM]	TGI (RPMI-8226 leukemia) [µM]	TGI (HS 578T breast) [µM]	TGI (HCT-15 colon) [µM]	TGI (HT29 colon) [µM]	TGI (HOP-62 NSCLC) [µM]	TGI (UACC-257 melanoma) [µM]	TGI (A498 renal) [µM]	TGI (MDA-N) [µM]	TGI (NCI/ADR-RES ovarian) [µM]	TGI (SK-MEL-5 melanoma) [µM]
CC(C)=CCC[C@@H](C)C1=C(Nc2ccccc2)C(O)=C(C)C(=O)C1=O	> 48.3	15.6	> 100	9.5	13.4	15.3	15.6	41.9	> 30.4	54.2	3.96	7.97
CC(=C(C(=O)O)C(=O)O)c1cc(-c2cccs2)cc(-c2ccc(Cl)cc2)c1O	35.1	32.7	15.6	> 90.7	37.5	40.5	60.4	33.5	30.8	31.4	57.2	> 52.8
N#CC1=C(N2CCOCC2)CCC1	> 100	> 100	> 100	> 100	> 100	> 100	> 100	> 100	> 100	> 100	> 100	> 100
C=CC(c1ccccc1)C1(O)c2cccc(O)c2C(=O)c2c(O)cccc21 (stereo not drawn)	22	34.5	54.8	34.8	29.4	25.3	41.1	40.2	34.6	20.7	31.2	32
O=C1OC2(c3ccc(O)cc3Oc3cc(O)ccc32)c2c1c(-c1ccccc1)c(-c1ccccc1)c(-c1ccccc1)c2-c1ccccc1	35.1	34.4	70.2	47.7	38.5	40.4	67.8	78.3	33.9	44.9	98.2	54
COc1ccccc1CNCc1nc2ccccc2[nH]1	> 100	> 100	> 100	> 100	> 100	> 100	> 100	> 100	> 100	> 100	> 100	> 100
O=Cc1ccc2c(c1)CC1(C2)Cc2ccc(C=O)cc2C1	6.15	19.7	22.1	28.7	> 46.6	53.6	37.2	40.5	69.7	5.99	32.5	16.7
O=c1[nH]c2ccsc2c(=O)n1COCc1ccccc1	> 100	> 100	> 100	> 100	> 100	> 100	> 100	> 100	> 100	> 100	> 100	> 100
Cc1nc2ccc(N=NN(C)C)cc2[nH]1	> 100	> 100	> 100	> 100	> 100	> 100	> 100	> 100	> 100	> 100	> 100	> 100
